Measured values reported in paper PMC7684578, “Isopedopeptins A–H: Cationic Cyclic Lipodepsipeptides from Pedobacter cryoconitis UP508 Targeting WHO Top-Priority Carbapenem-Resistant Bacteria” (ACS Chemical Biology, 2020).
In brackets after ≈: the same amount, converted by molar mass. Like-named read-outs stand apart in the source and are kept apart here. Starred links: 1 amine or outer side, 2 acyl side, 3 side chain; linkers in the order of their positions; H or OH if unused. Positions of bridges follow the written chain, without caps; N, C: chain ends. Non-standard residues stand in square brackets, D forms with d. Residues, ends and D or L forms follow the SMILES beside them. X2 = CCCCCCC[C@H](CC(=O)[*:1])O[*:2]; Val(3-OH) = CC(C)(O)[C@H](N)C(=O)O; X1 = C/C=C(/N[*:1])C(=O)[*:2]; Dab = NCC[C@H](N)C(=O)O; Dap = NC[C@H](N)C(=O)O

Experiments:
[1] = system: red blood cells from heparinized human blood; experiment: in vitro; assay type: cell-based; conditions: 45 min, 100 µM, pH 7.4
Method: positive control (Bortezomib) SI of <5%. The half maximal inhibitory concentration (IC50) was determined from log concentration-effect curves using non-linear regression analysis.
Frequency of resistance (FoR). For the determination of the FoR, the MIC of compound 2 was first evaluated on solid MH-agar medium prepared in 35 mm diameter plates. Each plate contained 4 mL agar with the appropriate amount of compound. Bacterial cultures were grown and prepared as described for the MIC assay. 13 µL of bacterial culture diluted to 0.5 MacFarland was inoculated into 1 mL 0.9% NaCl resulting in ~2 × 10^6 CFU/mL. 5 µL of this bacterial suspension was spotted onto the surface of each agar plate (~10^4 CFU/spot). Plates were sealed and incubated at 37°C for 18–20 hours. Agar MIC was recorded according to CLSI guidelines as the lowest concentration of […]
faint haze caused by the inoculum. Then 9 cm plates were prepared with 25 mL MHII agar medium containing 4 × or 8 × solid MIC concentrations of test compounds and seeded with 100 µL of a bacterial preparation, concentrated by centrifugation from overnight cultures and resuspended in 0.9% NaCl, corresponding to 108 CFU and 109 CFU per plate, and spread on the agar using 4–5 glass beads of 4 mm diameter. Since CFU were evaluated using the McFarland turbidity standard, the exact CFU number plated was evaluated by plating of serial dilutions of each inoculum preparation on MHII agar plates. Plates were incubated at 37°C and colonies were counted at 24 h and 48 h post-plating. The frequencies of resistance were then calculated by counting the number of validated resistant colonies growing on antibiotic preparations divided by the evaluated number of CFU in the inoculum.
Hemolysis assay. Compounds were evaluated for hemolytic activity using red blood cells from heparinized human blood. Red blood cells (RBC) were washed three times in Tyrode buffer (130 mM NaCl, 4 mM KCl, 2.8 mM NaOAc, 1 mM MgCl2, 10 mM HEPES, 10 mM glucose, 1 mM CaCl2, adjusted to pH 7.4) and resuspended in the same buffer. Final concentrations in the hemolysis assay were: 100 µM compound, 1% DMSO, and 50% RBC, assayed in a 200 µL volume in a microtiter plate. The mixture was incubated at 37 °C for 45 min with shaking (250 rpm). After incubation, RBCs were removed by centrifugation (1000 × g for 10 min), 100 µL clear plasma was transferred to a fresh microtiter plate, and the amount of hemoglobin measured using a spectrophotometer at 540 nm. The […]
complete lysis control contained 2% Triton X-100 (in Tyrode buffer) instead of compound; the negative control contained Tyrode buffer but no compound. Percent hemolysis was calculated as:
[Abs compound] - [Abs negative control] / [Abs complete lysis control] - [Abs negative control] ×
100. Values greater than 1% hemolysis at 100 µM were regarded as a red flag.
Bacterial membrane permeabilization assay. Liposomes were manufactured and permeabilization assayed as described previously.8 Briefly, dry lipid films of E. coli polar lipid extract were formed on round-bottom flask walls. This was achieved by dissolving lipids in chloroform and evaporating the solvent under agitation and nitrogen gas flow, followed by incubation in vacuum chamber. Lipid films were re-suspended by 30 min stirring (E. coli) at 55°C in an aqueous solution of 100 mM 5(6)-carboxyfluorescein in 10 mM Tris buffer (set to pH 7.4 at 37°C). Suspensions were subjected to repeated extrusion through a 100 nm pore size polycarbonate membrane in order to reduce multilamellar structures and polydispersity. Un-trapped carboxyfluorescein was removed by gel filtration. Membrane permeability was measured by monitoring carboxyfluorescein efflux from the liposomes to the external low concentration environment, resulting in loss of self-quenching and an increased fluorescence signal. The 96-well plates were prepared with a 2-fold serial dilution of the samples in Tris buffer, as well as negative controls (background) and 0.16% Triton X-100 (maximum […]
leakage). […]

P. aeruginosa = experiment: MIC determined at the Public Health Agency of Sweden (EUCAST); assay type: cell-based, Pseudomonas aeruginosa; conditions: for MIC: Pseudomonas aeruginosa, Public Health Agency of Sweden
Method: (§1) 10^8 CFU/mL) with turbidity assessed using a Sensititre Nephelometer (Trek Diagnostics Systems Ltd, UK). 50 µL of this bacterial suspension was transferred to 10 mL of MHII broth to give a final bacterial concentration ≅ 5 × 10^5 CFU/mL (acceptable range 3 – 7 × 10^5 CFU/mL). 50 µL of bacterial suspension was pipetted into each well (except the medium control well, where 50 µL MHII was pipetted). Final volume in each well was 100 µL. Plates were covered and incubated without shaking for 18-20 h at 35 °C ± 2 °C. MIC was read visually, as complete inhibition of growth by the unaided eye, using the medium-only wells as the control. Each compound was assayed at least in duplicate.
(§2) Additionally, the MIC for compound 2 against clinical carbapenem-resistant strains of A. baumannii […]
(§3) determined at the Public Health Agency of Sweden (according to EUCAST recommendations).
(§4) In vitro Cytotoxicity Determination. In vitro cytotoxicity was determined by a fluorometric microculture cytotoxicity assay,7 based on hydrolysis of fluorescein diacetate to fluorescein by cells with intact plasma membranes. In short, HepG2 cells (hepatocellular carcinoma cells, ATCC), in Eagle's Minimum Essential Medium (ATCC) supplemented with 10 % fetal bovine serum, penicillin/streptomycin (100 U/100 µg/mL) and 2 mM L-glutamine, were seeded in 384-well assay plates at a density of 1000 cells/well. The cells were incubated over night at 37°C and compounds in 10 mM DMSO were added, to obtain final concentrations 64 µM – 0.25 µM in two-fold dilutions.
(§5) After incubation for 72 h at 37°C, the cells were pelleted and washed. Fluorescein diacetate was added (1 µL, 0.5 mg/mL) and the fluorescence [485 nm(exc)/530 nm(em.)] was measured after 50 min at 37°C. Bortezomib (2 µM) was used as positive control and dose response testing of doxorubicin (top concentration 2 µM) was performed repeatedly to follow assay performance over time. Cytotoxicity was assessed after 72 h with cell survival presented as survival index (SI, %) defined as fluorescence in test wells in percent of control cultures with blank values subtracted.
(§6) Criteria for a successful assay include a signal-to-noise ratio in control cultures >10, CV <30% and a 7 Lindhagen, E., Nygren, P., and Larsson, R. (2008) The fluorometric microculture cytotoxicity assay. Nat.

E. coli = experiment: as above; assay type: cell-based; conditions: Escherichia coli
Method: as §1, §2, §3, §4, §5, §6

A. baumannii = experiment: as above; assay type: cell-based; conditions: Acinetobacter baumannii
Method: as §1, §2, §3, §4, §5, §6

C/C=C1/NC(=O)[C@H](CCN)NC(=O)[C@H](CC(C)C)NC(=O)[C@H](CN)NC(=O)C[C@@H](CCCCCCC)OC(=O)[C@H](CC(=O)O)NC(=O)[C@H](C(C)(C)O)NC(=O)[C@@H](Cc2ccccc2)NC(=O)[C@H](CN)NC(=O)[C@H]([C@@H](C)O)NC1=O [Compound 2, isopedopeptin B] ([Dap]L[Dab][X1]T[Dap][dF][Val(3-OH)]D; linker N-C via X2)
Hemolysis (%) [1]: 0.8% | MIC (P. aeruginosa; ATCC27853, WT, read-out: MIC P. aeruginosa ATCC27853): 4 µg/mL (≈ 3.58 µM) | MIC (P. aeruginosa; CARBA, read-out: MIC P. aeruginosa PS826): 4 µg/mL (≈ 3.58 µM) | MIC (P. aeruginosa; CARBA, read-out: MIC P. aeruginosa PS992): 4 µg/mL (≈ 3.58 µM) | MIC carbapenem-resistant P. aeruginosa (P. aeruginosa; summary in text over strains, strains not named): ≥ 4 µg/mL | MIC (E. coli; ATCC25922, WT, Public Health Agency of Sweden, read-out: MIC E. coli ATCC25922): 1 µg/mL (≈ 0.895 µM) | MIC (E. coli; CARBA, Public Health Agency of Sweden, read-out: MIC E. coli EC4129): 2 µg/mL (≈ 1.79 µM) | MIC (E. coli; CARBA, Public Health Agency of Sweden, read-out: MIC E. coli EC4163): 1 µg/mL (≈ 0.895 µM) | MIC (E. coli; summary in text over strains, strains not named, read-out: MIC carbapenem-resistant E. coli): ≥ 2 µg/mL | MIC (A. baumannii; CARBA, Public Health Agency of Sweden, read-out: MIC A. baumannii A219): 2 µg/mL (≈ 1.79 µM) | MIC (A. baumannii; CARBA, Public Health Agency of Sweden, read-out: MIC A. baumannii A250): 2 µg/mL (≈ 1.79 µM) | MIC (A. baumannii; summary in text over strains, strains not named, read-out: MIC carbapenem-resistant A. baumannii): ≥ 1 µg/mL
